# Measured values taken from paper PMC8513526, “An Advanced Automated Patch Clamp Protocol Design to Investigate Drug—Ion Channel Binding Dynamics” (Frontiers in Pharmacology, 2021).
# Read-outs that look alike come from different tables or passages of the source.
# What was measured:
# Format in all cases: cell-based
# rNaV1.4 [1] = molecular target: T1, rNaV1.4 (Rattus norvegicus, UniProt P15390); assay: automated patch clamp (IonFlux Mercury ensemble recording; Port-a-Patch single-cell validation), […]
# T1 construct: gene Scn4a; recombinant rNaV1.4 channel stably expressed in HEK 293 cells
# T1 sequence (P15390 whole entry): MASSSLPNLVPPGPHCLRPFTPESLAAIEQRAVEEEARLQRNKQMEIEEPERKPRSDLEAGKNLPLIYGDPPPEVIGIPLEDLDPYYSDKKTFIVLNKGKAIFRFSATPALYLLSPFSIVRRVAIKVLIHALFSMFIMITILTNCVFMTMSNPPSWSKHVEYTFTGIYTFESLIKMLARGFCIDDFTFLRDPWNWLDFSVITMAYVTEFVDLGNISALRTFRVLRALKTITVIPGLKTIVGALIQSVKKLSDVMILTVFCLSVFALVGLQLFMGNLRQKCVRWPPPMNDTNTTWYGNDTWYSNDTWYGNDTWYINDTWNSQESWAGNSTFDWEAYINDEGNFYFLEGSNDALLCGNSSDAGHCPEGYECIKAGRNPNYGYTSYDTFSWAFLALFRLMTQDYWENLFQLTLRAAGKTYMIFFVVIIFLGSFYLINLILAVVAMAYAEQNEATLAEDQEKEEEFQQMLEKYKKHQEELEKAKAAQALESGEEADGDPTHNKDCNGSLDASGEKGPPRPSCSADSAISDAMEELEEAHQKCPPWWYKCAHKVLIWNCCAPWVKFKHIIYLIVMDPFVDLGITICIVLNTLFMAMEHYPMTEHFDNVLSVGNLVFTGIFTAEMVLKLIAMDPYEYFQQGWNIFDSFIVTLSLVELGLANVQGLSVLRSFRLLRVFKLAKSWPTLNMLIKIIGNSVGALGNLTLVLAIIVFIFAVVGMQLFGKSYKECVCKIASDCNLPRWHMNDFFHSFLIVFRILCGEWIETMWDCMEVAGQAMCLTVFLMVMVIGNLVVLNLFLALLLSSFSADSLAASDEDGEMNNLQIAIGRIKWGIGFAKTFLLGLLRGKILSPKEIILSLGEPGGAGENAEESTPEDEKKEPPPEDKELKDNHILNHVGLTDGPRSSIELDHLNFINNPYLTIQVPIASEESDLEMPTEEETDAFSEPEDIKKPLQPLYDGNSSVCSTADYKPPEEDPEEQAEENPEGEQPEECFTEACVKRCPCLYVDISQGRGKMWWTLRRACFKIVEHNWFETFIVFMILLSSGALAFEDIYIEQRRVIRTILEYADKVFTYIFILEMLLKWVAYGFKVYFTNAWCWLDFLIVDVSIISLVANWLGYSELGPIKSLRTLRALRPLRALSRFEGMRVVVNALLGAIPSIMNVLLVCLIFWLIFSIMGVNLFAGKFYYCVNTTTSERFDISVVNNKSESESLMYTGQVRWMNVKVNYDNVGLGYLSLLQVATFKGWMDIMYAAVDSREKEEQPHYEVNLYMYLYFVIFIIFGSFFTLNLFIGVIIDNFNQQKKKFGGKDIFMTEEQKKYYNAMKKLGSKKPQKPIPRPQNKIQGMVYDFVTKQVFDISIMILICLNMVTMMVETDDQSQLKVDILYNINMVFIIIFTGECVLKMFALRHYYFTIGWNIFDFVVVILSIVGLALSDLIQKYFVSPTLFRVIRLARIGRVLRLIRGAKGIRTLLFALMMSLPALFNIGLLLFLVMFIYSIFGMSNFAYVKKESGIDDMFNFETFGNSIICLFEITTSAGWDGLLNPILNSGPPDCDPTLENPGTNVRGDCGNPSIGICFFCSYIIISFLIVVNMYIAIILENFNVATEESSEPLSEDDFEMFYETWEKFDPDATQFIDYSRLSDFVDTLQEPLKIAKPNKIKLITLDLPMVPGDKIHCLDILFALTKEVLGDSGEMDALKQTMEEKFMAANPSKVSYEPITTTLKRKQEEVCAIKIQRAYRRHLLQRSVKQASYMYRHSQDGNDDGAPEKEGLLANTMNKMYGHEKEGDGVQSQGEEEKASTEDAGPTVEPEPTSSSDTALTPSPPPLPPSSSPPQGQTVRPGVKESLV
# rNaV1.4 [2] = molecular target: T1, rNaV1.4; assay: automated patch clamp (IonFlux Mercury), […]
# rNaV1.4 [3] = molecular target: T1, rNaV1.4; assay: automated patch clamp (IonFlux Mercury ensemble recording; Port-a-Patch single-cell validation), […]; remark: listed apart in the source
# rNaV1.4 [4] = molecular target: T1, rNaV1.4; assay: automated patch clamp (IonFlux Mercury), […]; inhibition of pulse #[…] peak current at […]
smiles,measurement,setting,value
Nc1nc2ccc(OC(F)(F)F)cc2s1 [riluzole],automated patch clamp (IonFlux Mercury ensemble recording); Port-a-Patch single-c,rNaV1.4 [1],riluzole caused no change in either the contribution or the value of the slow time constant but caused a radical
CN(C)CCCN1c2ccccc2Sc2ccc(Cl)cc21 [chlorpromazine],"automated patch clamp (IonFlux Mercury), 10 and 30 μM",rNaV1.4 [2],inhibition by chlorpromazine was not much relieved throughout the whole 17-pulse sweep
CCN(CC)CC(=O)Nc1c(C)cccc1C [lidocaine],automated patch clamp (IonFlux Mercury ensemble recording); Port-a-Patch single-c,rNaV1.4 [3],"lidocaine caused a slowing of the fast time constant of recovery, which was moderate at lower concentrations"
CN(C)CCCN1c2ccccc2CCc2ccccc21 [imipramine],inhibition at 30 µM,rNaV1.4 [4],50 to 55%
